Measurements: article PMC11525561, “Gliflozins, sucrose and flavonoids are allosteric activators of lecithin-cholesterol acyltransferase” (Scientific Reports, 2024)
Where two headings read alike, the source gives them in different places.

Tests used:
[1] = molecular target: T1, LCAT (Homo sapiens, UniProt P04180); assay: MUP based phospholipase assay; type: biochemical; design: 6x histidine-tag (C); made in house; host or cells: 293T cells (ATCC CRL-3216); details: for phospholipase efficiency: kcat divided by Km; for increase of phospholipase Vmax / increase of phospholipase efficiency: versus LCAT without compounds
T1 sequence (P04180 25-440): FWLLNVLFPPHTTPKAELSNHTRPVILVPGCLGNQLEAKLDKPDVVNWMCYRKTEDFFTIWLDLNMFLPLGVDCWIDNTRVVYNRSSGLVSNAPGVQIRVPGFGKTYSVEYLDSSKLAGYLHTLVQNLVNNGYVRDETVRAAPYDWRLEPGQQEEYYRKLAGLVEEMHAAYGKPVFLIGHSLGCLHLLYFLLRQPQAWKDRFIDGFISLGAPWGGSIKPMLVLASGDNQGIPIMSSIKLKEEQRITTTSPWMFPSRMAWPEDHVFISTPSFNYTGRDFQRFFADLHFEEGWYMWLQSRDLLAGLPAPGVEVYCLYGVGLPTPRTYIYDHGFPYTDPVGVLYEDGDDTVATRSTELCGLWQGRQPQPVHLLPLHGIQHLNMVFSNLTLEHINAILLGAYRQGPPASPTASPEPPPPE
Description: The phospholipase activity of LCAT was evaluated by using MUP as a substrate. The reaction was monitored with the increased fluorescence signal due to the formation of the reaction product MU. The assay was performed at room temperature in reaction buffer (0.1 M sodium phosphate buffer, pH 7.4). 55 µL of LCAT in reaction buffer (0.01 mg/mL) were incubated at 37 °C gently shaken with 0.41 µL of PAM (2 mg/mL in DMSO) or DMSO. After 1 h incubation, 2 µL of each reaction (LCAT + DMSO, LCAT + PAM, reaction buffer + PAM) was added to a black 384 well microplate, low volume (Corning). A MUP stock solution 1 mg/mL in DMSO + 3% Triton X-100 was diluted in a reaction buffer to 0, 10, 40, 60 and 120 µM. 18 µL of each dilution was added to the plate to start the reaction. The MUP stock solution was diluted immediately before use due to the self-hydrolysis of MUP to MU in aqueous buffers. The phospholipase activity of LCAT was monitored by fluorescence signal using Varioskan LUX (Thermo Scientific) plate reader at an excitation wavelength of 340 nm and an emission wavelength of 460 nm every 10 min for 60 min. Background signal due to MUP self-hydrolysis was subtracted from each result. Reactions were performed in triplicates with three independent experiments. Reaction rates were obtained by dividing the data by the assay time. To calculate the amount of MU produced in each reaction, a standard curve was generated from a MU stock solution 100 mM in DMSO and diluted further in reaction buffer. The phospholipase activity (MU mM) was plotted as a function of the MUP concentration. Data were fitted to the Michaelis-Menten kinetic equation by non-linear regression. Apparent Vmax and Km were calculated with OriginPro 2021b (MA, USA) software (version 9.8.5.212), while phospholipase efficiency of each PAM was calculated by dividing kcat by Km. The absence of fluorescence interference coming from PAMs was checked at an excitation wavelength of 340 nm before starting the assay (Supplementary Fig. 3). The phospholipase activities of our PAMs were compared to a positive control compound A (Supplementary Fig. 2)[17].

[2] = molecular target: T1, LCAT; assay: DHE esterification acyltransferase assay with synthetic HDL (sHDL); type: biochemical; design: 6x histidine-tag (C); made in house; host or cells: 293T cells (ATCC CRL-3216); details: for Emax / acyltransferase Emax: normalized against LCAT + DMSO; for acyltransferase efficiency: kcat divided by Km
Description: The acyltransferase activity of LCAT was measured by using the fluorescent sterol DHE as a substrate. DHE is integrated in the structure of discoidal synthetic HDL (sHDL) made of peptides (22A) and phospholipids (DMPC). As a consequence of the acyltransferase activity of LCAT, DHE is esterified and stored in the inner core of sHDL as DHE-ester. The esterification is responsible for a shift in the emission wavelength of DHE from 372 nm to 425 nm, allowing the exclusive detection of DHE-ester and monitoring of the reaction.
DHE-sHDL was prepared via thermal cycling. In a glass vial, DHE and DMPC dissolved in chloroform were mixed with a molar ratio of 1:9. The organic solvent was dried with Rotavapor R-200 (BUCHI, Switzerland) at room temperature. The resulting dried thin lipid layer was hydrated with assay buffer (PBS 20 mM + EDTA 1 mM) and vortexed until complete dissolution. The solution was homogenized in a water bath sonicator at room temperature until transparency. 22A peptides dissolved in assay buffer were added to the vial (lipid to protein 2:1 w/w). The solution was incubated via three heating-cooling cycles (50 °C x 3 min; 4 °C x 3 min). […] The acyltransferase activity assay was performed in 384 well low volume black microplates with a final volume of 25 µL. PAM (0.1 mg/mL in DMSO) or DMSO were incubated with LCAT (5 µg/mL in assay buffer + 60 µM albumin (Merck)) 1:100 v/v at 37 °C gently shaken. After 30 min incubation, 10 µL of each reaction (LCAT + DMSO or LCAT + PAM) was added to the plate. To start the reaction, 10 µL of DHE-sHDL solution were added in the wells. The plate was incubated for 1 h at 37 °C gently shaken. Reactions were stopped by the addition of 5 µL of stop solution (assay buffer + 5 units/mL cholesterol oxidase COx + 7% Triton X-100). Plates went through a second round of incubation at 37 °C gently shaken for 1 h to extinguish the residual fluorescence of unesterified DHE. […] DHE-ester fluorescence was detected at an excitation wavelength of 325 nm and an emission wavelength of 425 nm using Varioskan LUX. Reactions without LCAT were used for background subtraction, while reactions without LCAT and stop solution without COx were used to generate a standard curve for DHE (λex 325 nm, λem 372 nm). Reactions were performed in triplicates with three independent experiments. Due to the light sensitivity of DHE, samples were protected from light during the entire preparation and assay. Data was processed via background subtraction, divided by the slope of the standard curve to obtain the amount of DHE-esters in every well and then divided further by the reaction time to determine the rate. The acyltransferase activity (DHE-ester formed) was plotted as a function of the DHE concentration. Data were fitted to the Michaelis-Menten kinetic equation by non-linear regression. Apparent Vmax and Km were calculated using OriginPro 2021b software, while acyltransferase efficiency of each PAM was calculated by dividing kcat by Km. […] The acyltransferase activities of our PAMs were compared to the reference compound A (Supplementary Fig. 2).
PAMs were diluted in DMSO reaching a final concentration of 0.001, 0.01, 0.1, 1 and 10 µM in the wells. Reactions were conducted exactly as above, using the same LCAT concentration and the same volumes. The experiment was performed in triplicate with three independent experiments. Fluorescence signals were processed via background subtraction (DHE-sHDL + buffer + stop solution), divided by the slope of the standard curve to obtain the amount of DHE-esters in every well and then divided further by the reaction time to determine the rate. Data were normalized against no PAM control (LCAT + DMSO). The acyltransferase activity (DHE-ester formed) was plotted as a function of the PAM concentration.

[3] = test system: LCAT; design: method as in PMID 30479275; details: MUP assay; cited from earlier work
[4] = cited from earlier work
[5] = molecular target: T1, LCAT; design: method as in PMID 4214409; details: blood of diabetes patients before and after insulin treatment; cited from earlier work
[6] = design: method as in PMID 9827549, PMID 19110406; details: cited from earlier work
[7] = MUP concentration varied, mean ± SEM
[8] = DHE 50 µM, PAM concentration varied
[9] = DHE 50 µM, PAM concentration varied, mean ± SEM of triplicate, read-out: acyltransferase EC50
[10] = PAM 3 µM, DHE concentration varied, mean ± SEM
[11] = PAM 3 µM, versus LCAT without compounds

| SMILES | phospholipase Vmax [1, 7] | phospholipase efficiency [1] | increase of LCAT acyltransferase activity [2, 8] | EC50 [2, 9] | Emax ([2]; DHE 50 µM) | acyltransferase Vmax [2, 10] | acyltransferase efficiency ([2]; PAM 3 µM) | improvement of acyltransferase efficiency [2, 11] | other results |
| --- | --- | --- | --- | --- | --- | --- | --- | --- | --- |
| N#Cc1cnc(N2CCC(c3n[nH]c4c3C(O)(C(F)(F)F)CC(=O)N4)CC2)cc1C(F)(F)F (stereo not shown) [1b] | – | – | – | – | – | – | – | – | phospholipase activity compared to LCAT [3]: 230% |
| Cc1ccc([C@@H]2O[C@H](CO)[C@@H](O)[C@H](O)[C@H]2O)cc1Cc1ccc(-c2ccc(F)cc2)s1 [canagliflozin] | 15.70 ± 0.66 µM h^− 1 | 34.63 ± 0.97 µM⁻¹ h⁻¹ | 150% | 80 ± 20 nM | – | 14.78 ± 0.34 µM h^− 1 | 44.46 ± 2.43 µM⁻¹ h⁻¹ | roughly 100% | Km [1, 7]: 22.7 ± 0.95 µM; increase of phospholipase Vmax [1]: 130%; increase of phospholipase efficiency [1]: 340%; bound to proteins in plasma [4]: 99%; acyltransferase Emax ([2]; DHE 50 µM): 254.34±23.72%; Km [2, 10]: 8.37 ± 0.57 µM; increase of acyltransferase Vmax [2, 11]: 70% |
| OC[C@H]1OC(O)[C@H](O)[C@@H](O)[C@@H]1O (stereo partly shown) [glucose] | – | – | – | – | – | – | – | – | activation of LCAT [5]: cannot activate LCAT |

More lines, main results first:

| phospholipase Vmax [1, 7] | phospholipase efficiency [1] | increase of LCAT acyltransferase activity [2, 8] | EC50 [2, 9] | Emax ([2]; DHE 50 µM) | acyltransferase Vmax [2, 10] | acyltransferase efficiency ([2]; PAM 3 µM) | improvement of acyltransferase efficiency [2, 11] | SMILES | other results |
| --- | --- | --- | --- | --- | --- | --- | --- | --- | --- |
| 10.71 ± 0.49 µM h^− 1 | 19.60 ± 0.01 µM⁻¹ h⁻¹ | roughly 100% | 120 ± 40 nM | 211 ± 21.4% | 13.55 ± 0.67 µM h^− 1 | 22.69 ± 1.94 µM⁻¹ h⁻¹ | – | O=C1c2c(O)cc(O)cc2OC(c2ccc(O)c(O)c2)C1O (stereo not shown) [taxifolin] | – |
| 11.68 ± 1.15 µM h^− 1 | 12.82 ± 2.80 µM⁻¹ h⁻¹ | roughly 100% | 80 ± 40 nM | 196 ± 13.4% | 12.13 ± 0.46 µM h^− 1 | 31.54 ± 2.93 µM⁻¹ h⁻¹ | – | CCOc1ccc(Cc2cc([C@@H]3O[C@H](CO)[C@@H](O)[C@H](O)[C@H]3O)ccc2Cl)cc1 [dapagliflozin] | increase of phospholipase Vmax [1]: 70%; bound to proteins in plasma [4]: 91% |
| 7.95 ± 1.90 µM h^− 1 | 6.28 ± 1.06 µM⁻¹ h⁻¹ | no effect | – | – | 6.58 ± 0.26 µM h^− 1 | 18.92 ± 2.45 µM⁻¹ h⁻¹ | – | COC(=O)Nc1nc2ccc(C(=O)c3ccccc3)cc2[nH]1 [mebendazole] | effect on acyltransferase activity at 21.6 µM DHE ([2]; 21.6 µM DHE, PAM 3 µM): inhibited activity slightly; acyltransferase EC50 ([2]; DHE 50 µM, PAM concentration varied, mean ± SEM of triplicate): no effect; acyltransferase Emax ([2]; DHE 50 µM): no effect |
| 8.79 ± 0.81 µM h^− 1 | 22.43 ± 4.38 µM⁻¹ h⁻¹ | roughly 100% | – | 176 ± 12.5% | 11.18 ± 0.80 µM h^− 1 | 38.88 ± 9.05 µM⁻¹ h⁻¹ | roughly 100% | OC[C@H]1O[C@@](CO)(O[C@H]2O[C@H](CO)[C@@H](O)[C@H](O)[C@H]2O)[C@@H](O)[C@@H]1O [sucrose] | increase of phospholipase efficiency [1]: 180%; oral bioavailability [6]: poor; EC50 [2]: 120 ± 60 nM |
| 10.91 ± 1.50 µM h^− 1 | 17.11 ± 4.72 µM⁻¹ h⁻¹ | roughly 100% | 100 ± 10 nM | 191 ± 16.1% | 11.71 ± 0.43 µM h^− 1 | 36.95 ± 2.13 µM⁻¹ h⁻¹ | roughly 100% | O=c1cc(-c2ccc(O)c(O)c2)oc2cc(O)cc(O)c12 [luteolin] | – |
